Results published in publication PMC5590943, “Pharmacological characterisation of S 47445, a novel positive allosteric modulator of AMPA receptors” (PLoS ONE, 2017).

Key:
α1 (non-selective) = assay: Binding assay, [3H]prazosin
A2A (h) = A2A (h) (Homo sapiens, UniProt P29274); assay: Binding assay, [3H]CGS 21680
BZD (central) = assay: Binding assay, [3H]flunitrazepam
ATPase (Na+/K+) = assay: Enzyme and cell-based assay, ATP (2 mM)

A2A (h), sequence (P29274 whole entry): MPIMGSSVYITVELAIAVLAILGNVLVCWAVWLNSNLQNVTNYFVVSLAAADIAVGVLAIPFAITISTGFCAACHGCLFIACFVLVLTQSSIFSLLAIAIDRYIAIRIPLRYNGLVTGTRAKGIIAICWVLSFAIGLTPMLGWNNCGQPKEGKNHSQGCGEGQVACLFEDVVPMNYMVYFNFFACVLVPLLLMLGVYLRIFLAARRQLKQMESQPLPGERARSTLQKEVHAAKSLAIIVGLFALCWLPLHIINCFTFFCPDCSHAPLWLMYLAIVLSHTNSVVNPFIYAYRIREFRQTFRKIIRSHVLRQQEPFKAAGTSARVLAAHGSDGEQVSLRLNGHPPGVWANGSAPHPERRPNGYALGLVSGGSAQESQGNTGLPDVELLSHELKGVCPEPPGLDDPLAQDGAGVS

## O=C1c2cc3nnn(CCc4cccc(F)c4)c(=O)c3cc2OCN1C1CC1 [S 47445, 8-cyclopropyl-3-[2-(3-fluorophenyl)ethyl]-7,8-dihydro-3H-[1,3]oxazino[6,5-g][1,2,3]benzotriazine-4,9-dione]
α1 (non-selective); S 47445 1.0E-05 M
  % Inhibition of control specific binding: 1%
α1 (non-selective); S 47445 1.0E-07 M
  % Inhibition of control specific binding: -5%
A2A (h); S 47445 1.0E-05 M
  % Inhibition of control specific binding: 9%
A2A (h); S 47445 1.0E-07 M
  % Inhibition of control specific binding: -8%
BZD (central); S 47445 1.0E-05 M
  % Inhibition of control specific binding: -21%
BZD (central); S 47445 1.0E-07 M
  % Inhibition of control specific binding: -2%
ATPase (Na+/K+); S 47445 1.0E-05 M
  % Inhibition of control specific binding: -2%
ATPase (Na+/K+); S 47445 1.0E-07 M
  % Inhibition of control specific binding: -3%
